Like-named read-outs stand apart in the source and are kept apart here. Marks after values point to notes of the source that are not given here.
Legend:
[1] = 5% acetic acid 100° C.; for % Oxycodone, % IVA-IVD in hydrolysis mixture: unreacted oxycodone + four isomers of Formula IV, 1 mg/ml
[2] = assay type: physicochemical; settings: for extent of hydrolysis to hydrocodone in about 4 hours: FIG. 5, FIG. 6; for % hydrocodone, % Ketal in hydrolysis mixture: hydrocodone 1,3-propanediol ketal; for % hydrocodone, % Ketal in hydrolysis mixture / Hydrocodone, 2S,5S ketal in hydrolysis mixture / Hydrocodone, 2R,5R ketal in hydrolysis mixture: 1 mg/ml; for % Oxycodone, % IVA-IVD in hydrolysis mixture: total 1 mg/ml; for relative rate of hydrolysis: comparison of stereoisomers; for Hydrocodone, 2S,5S ketal in hydrolysis mixture: hydrocodone 2S,5S-hexanediol ketal tested separately; for Hydrocodone, 2R,5R ketal in hydrolysis mixture: hydrocodone 2R,5R-hexanediol ketal tested separately
[3] = Ketal hydrolysis at varying pH, buffers at 37° C.; settings: 1 mg/ml; for hydrolysis of the ketal: 37° C.
[4] = mixture of isomers, 0.1 N HCl 37° C.

COc1ccc2c3c1O[C@H]1C4(CCC5(O)[C@@H](C2)N(C)CC[C@]315)OCCC(C)O4 (stereo partly shown) [Formula V, oxycodone 1,3-butanediol ketal]
time to almost completely hydrolyze to oxycodone ([1]; FIG. 12, FIG. 13): at least 4 hours | time to about 60% hydrolysis ([1]; FIG. 13): about 1 hour | time at which about 50% of the oxycodone is released [2, 4]: about 5 hours | time by which about (almost) 90% oxycodone release occurs [2, 4]: ≤ 25 h

COc1ccc2c3c1O[C@H]1C4(CCC5[C@@H](C2)N(C)CC[C@@]351)OCCCO4 (stereo partly shown) [Hydrocodone 1,3-propanediol ketal]
extent of hydrolysis to hydrocodone in about 4 hours ([2]; 0.1 N HCl 37° C.): nearly complete hydrolysis | % hydrocodone, % Ketal in hydrolysis mixture ([2]; 0.1 N HCl 37° C., 0 h): 93.1% | % hydrocodone, % Ketal in hydrolysis mixture ([2]; 0.1 N HCl 37° C., 0.57 h): 65.7% | % hydrocodone, % Ketal in hydrolysis mixture ([2]; 0.1 N HCl 37° C., 1.25 h): 52.3% | % hydrocodone, % Ketal in hydrolysis mixture ([2]; 0.1 N HCl 37° C., 2 h): 41.8% | % hydrocodone, % Ketal in hydrolysis mixture ([2]; 0.1 N HCl 37° C., 3 h): 32.8% | % hydrocodone, % Ketal in hydrolysis mixture ([2]; 0.1 N HCl 37° C., 4 h): 25.6%

COc1ccc2c3c1O[C@H]1[C@]4(CCC5(O)[C@@H](C2)N(C)CC[C@]315)O[C@H](C)C[C@H](C)O4 (stereo partly drawn) [IVA, oxycodone 2R,4S-pentanediol ketal]
% Oxycodone, % IVA-IVD in hydrolysis mixture ([1]; 0 h): 24% | % Oxycodone, % IVA-IVD in hydrolysis mixture ([1]; 0.5 h): 21.1% | % Oxycodone, % IVA-IVD in hydrolysis mixture ([1]; 1 h): 15.8% | % Oxycodone, % IVA-IVD in hydrolysis mixture ([1]; 2 h): 6% | % Oxycodone, % IVA-IVD in hydrolysis mixture ([1]; 4.35 h): 3.1% | % Oxycodone, % IVA-IVD in hydrolysis mixture ([1]; 10 h): 0% | % Oxycodone, % IVA-IVD in hydrolysis mixture ([2]; 0.1 N HCl 37° C., 0 h): 24.7% | % Oxycodone, % IVA-IVD in hydrolysis mixture ([2]; 0.1 N HCl 37° C., 0.583 h): 25.9% | % Oxycodone, % IVA-IVD in hydrolysis mixture ([2]; 0.1 N HCl 37° C., 1.167 h): 25.6% | % Oxycodone, % IVA-IVD in hydrolysis mixture ([2]; 0.1 N HCl 37° C., 1.75 h): 25% | % Oxycodone, % IVA-IVD in hydrolysis mixture ([2]; 0.1 N HCl 37° C., 2.33 h): 25.9% | % Oxycodone, % IVA-IVD in hydrolysis mixture ([2]; 0.1 N HCl 37° C., 2.92 h): 24.8% | % Oxycodone, % IVA-IVD in hydrolysis mixture ([2]; 0.1 N HCl 37° C., 4 h): 23.7% | % Oxycodone, % IVA-IVD in hydrolysis mixture ([2]; 0.1 N HCl 37° C., 6.5 h): 19.8% | % Oxycodone, % IVA-IVD in hydrolysis mixture ([2]; 0.1 N HCl 37° C., 9.75 h): 15.6% | % Oxycodone, % IVA-IVD in hydrolysis mixture ([2]; 0.1 N HCl 37° C., 13.75 h): 9.9% | % Oxycodone, % IVA-IVD in hydrolysis mixture ([2]; 0.1 N HCl 37° C., 25 h): 4.3%

COc1ccc2c3c1O[C@H]1[C@@]4(CCC5(O)[C@@H](C2)N(C)CC[C@]315)O[C@H](C)C[C@H](C)O4 (stereo partly drawn) [IVB, oxycodone 2S,4R-pentanediol ketal]
% Oxycodone, % IVA-IVD in hydrolysis mixture ([1]; 0 h): 10.9% | % Oxycodone, % IVA-IVD in hydrolysis mixture ([1]; 0.5 h): 8.7% | % Oxycodone, % IVA-IVD in hydrolysis mixture ([1]; 1 h): 9.7% | % Oxycodone, % IVA-IVD in hydrolysis mixture ([1]; 2 h): 9.2% | % Oxycodone, % IVA-IVD in hydrolysis mixture ([1]; 4.35 h): 9% | % Oxycodone, % IVA-IVD in hydrolysis mixture ([1]; 10 h): 4.8% | % Oxycodone, % IVA-IVD in hydrolysis mixture ([2]; 0.1 N HCl 37° C., 0 h): 10.7% | % Oxycodone, % IVA-IVD in hydrolysis mixture ([2]; 0.1 N HCl 37° C., 0.583 h): 10.6% | % Oxycodone, % IVA-IVD in hydrolysis mixture ([2]; 0.1 N HCl 37° C., 1.167 h): 10.7% | % Oxycodone, % IVA-IVD in hydrolysis mixture ([2]; 0.1 N HCl 37° C., 1.75 h): 7.8% | % Oxycodone, % IVA-IVD in hydrolysis mixture ([2]; 0.1 N HCl 37° C., 2.33 h): 8.3% | % Oxycodone, % IVA-IVD in hydrolysis mixture ([2]; 0.1 N HCl 37° C., 2.92 h): 8.7% | % Oxycodone, % IVA-IVD in hydrolysis mixture ([2]; 0.1 N HCl 37° C., 4 h): 9.2% | % Oxycodone, % IVA-IVD in hydrolysis mixture ([2]; 0.1 N HCl 37° C., 6.5 h): 10% | % Oxycodone, % IVA-IVD in hydrolysis mixture ([2]; 0.1 N HCl 37° C., 9.75 h): 10.2% | % Oxycodone, % IVA-IVD in hydrolysis mixture ([2]; 0.1 N HCl 37° C., 13.75 h): 10.4% | % Oxycodone, % IVA-IVD in hydrolysis mixture ([2]; 0.1 N HCl 37° C., 25 h): 9.3%

Hydrocodone 2R,4R-pentanediol ketal
hydrolysis of the ketal ([3]; pH 1, 0 h): 0 | hydrolysis of the ketal ([3]; pH 1, 0.33 h): 50 | hydrolysis of the ketal ([3]; pH 1, 1 h): 90 | hydrolysis of the ketal ([3]; pH 1, 2 h): 99.8 | hydrolysis of the ketal ([3]; pH 1, 4 h): 100 | hydrolysis of the ketal ([3]; pH 1.5, 0 h): 0 | hydrolysis of the ketal ([3]; pH 1.5, 0.33 h): 30.6 | hydrolysis of the ketal ([3]; pH 1.5, 1 h): 59.4 | hydrolysis of the ketal ([3]; pH 1.5, 2 h): 85.1 | hydrolysis of the ketal ([3]; pH 1.5, 4 h): 98.2 | hydrolysis of the ketal ([3]; pH 2, 0 h): 0 | hydrolysis of the ketal ([3]; pH 2, 0.33 h): 8.3 | hydrolysis of the ketal ([3]; pH 2, 1 h): 21.9 | hydrolysis of the ketal ([3]; pH 2, 2 h): 37.7 | hydrolysis of the ketal ([3]; pH 2, 4 h): 58.2 | hydrolysis of the ketal ([3]; pH 2.5, 0 h): 0 | hydrolysis of the ketal ([3]; pH 2.5, 0.33 h): 0 | hydrolysis of the ketal ([3]; pH 2.5, 1 h): 0 | hydrolysis of the ketal ([3]; pH 2.5, 2 h): 15.9 | hydrolysis of the ketal ([3]; pH 2.5, 4 h): 26.4 | hydrolysis of the ketal ([3]; pH 3, 0 h): 0 | hydrolysis of the ketal ([3]; pH 3, 0.33 h): 0 | hydrolysis of the ketal ([3]; pH 3, 1 h): 0 | hydrolysis of the ketal ([3]; pH 3, 2 h): 5.9 | hydrolysis of the ketal ([3]; pH 3, 4 h): 12.7 | hydrolysis of the ketal ([3]; pH 4, 4 h, estimated from longer hydrolysis times): 1.3* | hydrolysis of the ketal ([3]; pH 5, 4 h, estimated from longer hydrolysis times): 0.15* | hydrolysis of the ketal ([3]; pH 7, 4 h, estimated from longer hydrolysis times): 0.01* | hydrolysis of the ketal ([3]; pH 12, 4 h, estimated from longer hydrolysis times): 0.01* | pH at which hydrolysis of the ketal is fastest ([3]; pH buffers 37° C.): fastest at pH 1

Hydrocodone 2S,5S-hexanediol ketal [2S,5S ketal]
relative rate of hydrolysis [2]: hydrolyzes relatively slowly | Hydrocodone, 2S,5S ketal in hydrolysis mixture ([2]; 0.1 N HCl 37° C., 0 h): 81.98 | Hydrocodone, 2S,5S ketal in hydrolysis mixture ([2]; 0.1 N HCl 37° C., 0.5 h): 52.18 | Hydrocodone, 2S,5S ketal in hydrolysis mixture ([2]; 0.1 N HCl 37° C., 1.25 h): 35.11 | Hydrocodone, 2S,5S ketal in hydrolysis mixture ([2]; 0.1 N HCl 37° C., 2 h): 10.19 | Hydrocodone, 2S,5S ketal in hydrolysis mixture ([2]; 0.1 N HCl 37° C., 3 h): 4.29 | Hydrocodone, 2S,5S ketal in hydrolysis mixture ([2]; 0.1 N HCl 37° C., 4 h): 2

hydrocodone 2,5-hexanediol ketal
extent of hydrolysis to hydrocodone in about 4 hours ([2]; 0.1 N HCl 37° C.): nearly complete hydrolysis

hydrocodone 2R,5R-hexanediol ketal [2R,5R ketal]
relative rate of hydrolysis [2]: hydrolyzes relatively quickly | Hydrocodone, 2R,5R ketal in hydrolysis mixture ([2]; 0.1 N HCl 37° C., 0 h): 73.88 | Hydrocodone, 2R,5R ketal in hydrolysis mixture ([2]; 0.1 N HCl 37° C., 0.5 h): 34.6 | Hydrocodone, 2R,5R ketal in hydrolysis mixture ([2]; 0.1 N HCl 37° C., 1.25 h): 11.37 | Hydrocodone, 2R,5R ketal in hydrolysis mixture ([2]; 0.1 N HCl 37° C., 2 h): 2.67 | Hydrocodone, 2R,5R ketal in hydrolysis mixture ([2]; 0.1 N HCl 37° C., 3 h): 0 | Hydrocodone, 2R,5R ketal in hydrolysis mixture ([2]; 0.1 N HCl 37° C., 4 h): 0

oxycodone cis 1,2-cyclohexanedimethanol ketals
proportion of oxycodone in the mixture ([2]; 0.1 N HCl 37° C., within five hours, FIG. 4): increased from about 30% to about 55%

Reference: patent US11091496B2, “Opioid ketal compounds and uses thereof” (priority 2013, dated 2021)
